Test results reported in patent US20260083924A1, “CAPSULE INHALER FOR THE ADMINISTRATION OF A PHOSPHODIESTERASE-4 INHIBITOR” (CHIESI FARMACEUTICI S.P.A., priority 2022, published 2026).

Experiments:
[1] = inhalation; multi-dose Nexthaler vs single-dose Aerolizer; cited from earlier work
[2] = In vitro dissolution test (RespiCell) on fine fraction collected by Fast Screening Impactor; format: physicochemical; details: FIG. 3; 800 μg dose, HR RS01 or UHR RS01 vs Nexthaler; PBS with 0.5% SDS, 37 °C
Procedure: In vitro dissolution tests were carried out to compare the performance of the Reference Products and the drug product of the invention at 800 μg, using RespiCell™ (EU registration No 006649570-0001), a vertical diffusion cell apparatus that comprises a 170 cm^3 reservoir filled with the dissolution media and a side arm of 10 cm length. The apparatus is composed of an upper part, the donor chamber, and a lower part, the receptor chamber, linked by a clamp and separated by a glass fiber filter, used as diffusion membrane, and sit horizontally in contact with the dissolution medium. The receptor chamber contains a magnetic stirrer inside it. Type A/E glass fiber filter of 76 mm diameter (PALL Corporation, Port Washington; NY, USA) were employed as diffusion membrane. The dissolution medium employed for the analysis was phosphate-buffer saline (PBS) with 0.5% of Sodium dodecyl sulfate (SDS). RespiCell™ was connected to a heating thermostat (Lauda eco silver E4, DE) set at 37±0.5° C. […] The amount of drug in the samples was assessed by HPLC. The data were expressed as percentage of the compound of formula (I) dissolved and 100% of the dissolution corresponded to the drug amount dissolved at the end of experiment. […] The difference factor (f1) is calculated as follows: […]

SMILES: CS(=O)(=O)Nc1ccc(C(=O)O[C@@H](Cc2c(Cl)c[n+]([O-])cc2Cl)c2ccc(OC(F)F)c(OCC3CC3)c2)cc1OCC1CC1 [compound of formula (I), 3,5-dichloro-4-[(2S)-2-[3-(cyclopropylmethoxy)-4-(difluoromethoxy)phenyl]-2-{[3-(cyclopropylmethoxy)-4-(methanesulfonamido)benzoyl]oxy}ethyl]pyridinel-oxide]
- weighted AUC systemic bioavailability, higher via Nexthaler than via Aerolizer [1]: about 30%
- amount of the compound of formula (I) dissolved, higher in comparison to the Reference Product [2]: 7-20%
